Measurements from publication PMC10140010 (Investigational New Drugs, 2023).
“And” between values parts separate entries of the source, which are not always exact repeats. Identical values can stand only once.

Key:
JAK2 = JAK2 (Homo sapiens, UniProt O60674); test: Z'-LYTE kinase selectivity; format: biochemical
MAPKAPK2 = MAPKAPK2 (Homo sapiens, UniProt P49137); test: Z'-LYTE kinase selectivity; format: biochemical
MINK = MINK (Homo sapiens, UniProt Q8N4C8); test: Z'-LYTE kinase selectivity; format: biochemical
MST4 = MST4 (Homo sapiens, UniProt Q9P289); test: Z'-LYTE kinase selectivity; format: biochemical
TAOK2 = TAOK2 (Homo sapiens, UniProt Q9UL54); test: Z'-LYTE kinase selectivity; format: biochemical
CK1 alpha = CK1 alpha (Homo sapiens, UniProt P48729); test: Z'-LYTE kinase selectivity; format: biochemical
[1] = tested on: LU-01-0015 (HIP-ALK) patient derived lung-tumor xenografts; test: LU-01-0015 patient-derived xenograft model (tumor volume, body weight); format: in vivo, BALB/c nude mice; conditions: for Tumor volume Mean: group mean; for Tumor volume: individual mouse, in mm³
Procedure: Female BALB/c nude mice (4–6 weeks old) were provided by Shanghai Sipple-Bikai Laboratory Animal Co., Ltd. and Beijing Vital River Laboratory Animal Technology Co., Ltd. The mice were housed in a specific pathogen-free environment under a 12 h light/dark cycle, and had free access to sterile animal feed and water.
PDX and CDX models were used for in vivo studies. Patient-derived tumors tissues were divided into about 30 mm^3 and transplanted into the right dorsal subcutis. Treatment began when the tumor size reached to 200 mm^3. The mice were randomly assignied into the corresponding dosing groups (9 mice in each group). Drugs were deliverd via daily oral for 4 weeks. Tumor size was measured periodically using a digital caliper (Cal Pro, Sylvac, Switzerland), and tumor volume was calculated as 0.5 × length × width^2. For more detailed information, please refer to Supplementary materials. All procedures and protocols of xenograft models were approved by the Institutional Animal Care and Use Committee of WuXi AppTec.
Patient-derived tumor tissue was segmented into small pieces of approximately 20–30 mm^3 and transplanted subcutaneously into the right back of mice. When the tumor volume reached 150-200 mm^3, the mice were randomly divided into corresponding groups (9 mice in each group, female). Administered by gavage once daily for 4 weeks.

[2] = tested on: Ba/F3 (SLC34A2-ROS1) cells; test: Cell proliferation (CellTiter-Glo); format: cell-based; conditions: read-out: IC50 BaF3 SLC34A2-ROS1
Procedure: (§1) Cell proliferation assay was performed using methods reported in the previous article. Cell proliferation was measured using the CellTiter-Glo® (CTG) Luminescent Cell Viability Assay (Promega, WI, USA). Cells were seeded in 96-well plates at 15,000 cells per well in detection medium containing 0.5% fetal bovine serum and placed in an incubator at 37℃ and 5% CO2 overnight. On the following day, iruplinalkib was serially diluted with DMSO, further diluted in assay medium, and added to the designated wells for serial dilution of iruplinalkib to the target gradient concentration.

[3] = tested on: NCI-H1975 (EGFR^L858R/T790M) cells; test: Cell proliferation (CellTiter-Glo); format: cell-based
Procedure: as §1

CDK2 = CDK2 (Homo sapiens, UniProt P24941); test: Z'-LYTE kinase selectivity; format: biochemical
EPHA2 = EPHA2 (Homo sapiens, UniProt P29317); test: Z'-LYTE kinase selectivity; format: biochemical
DYRK3 = DYRK3 (Homo sapiens, UniProt O43781); test: Z'-LYTE kinase selectivity; format: biochemical
SRC = SRC (Homo sapiens, UniProt P12931); test: Z'-LYTE kinase selectivity; format: biochemical
P38 alpha = P38 alpha (Homo sapiens, UniProt Q16539); test: Z'-LYTE kinase selectivity; format: biochemical
GSK3 beta = GSK3 beta (Homo sapiens, UniProt P49841); test: Z'-LYTE kinase selectivity; format: biochemical
[4] = 5 mg/kg PO QD×4 W, day 0 after administration
[5] = 5 mg/kg PO QD×4 W, day 7 after administration
[6] = 5 mg/kg PO QD×4 W, day 10 after administration
[7] = 5 mg/kg PO QD×4 W, day 14 after administration
[8] = 5 mg/kg PO QD×4 W, day 17 after administration
[9] = 5 mg/kg PO QD×4 W, day 21 after administration
[10] = 5 mg/kg PO QD×4 W, day 24 after administration
[11] = 5 mg/kg PO QD×4 W, day 27 after administration
[12] = 10 mg/kg PO QD×4 W, day 0 after administration
[13] = 10 mg/kg PO QD×4 W, day 3 after administration
[14] = 10 mg/kg PO QD×4 W, day 7 after administration
[15] = 10 mg/kg PO QD×4 W, day 10 after administration
[16] = 10 mg/kg PO QD×4 W, day 14 after administration
[17] = 10 mg/kg PO QD×4 W, day 17 after administration
[18] = 10 mg/kg PO QD×4 W, day 21 after administration
[19] = 10 mg/kg PO QD×4 W, day 24 after administration
[20] = 10 mg/kg PO QD×4 W, day 27 after administration

P38 alpha, sequence (Q16539 whole entry): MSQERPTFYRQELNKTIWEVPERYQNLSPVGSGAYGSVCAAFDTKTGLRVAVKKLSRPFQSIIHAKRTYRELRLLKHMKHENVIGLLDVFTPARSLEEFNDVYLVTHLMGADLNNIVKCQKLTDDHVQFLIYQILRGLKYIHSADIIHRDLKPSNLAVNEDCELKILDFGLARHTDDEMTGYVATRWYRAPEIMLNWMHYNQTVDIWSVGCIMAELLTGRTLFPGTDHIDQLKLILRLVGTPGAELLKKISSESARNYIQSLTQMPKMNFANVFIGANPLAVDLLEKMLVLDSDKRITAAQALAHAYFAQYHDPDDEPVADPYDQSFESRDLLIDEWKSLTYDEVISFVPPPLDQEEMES
JAK2, sequence (O60674 whole entry): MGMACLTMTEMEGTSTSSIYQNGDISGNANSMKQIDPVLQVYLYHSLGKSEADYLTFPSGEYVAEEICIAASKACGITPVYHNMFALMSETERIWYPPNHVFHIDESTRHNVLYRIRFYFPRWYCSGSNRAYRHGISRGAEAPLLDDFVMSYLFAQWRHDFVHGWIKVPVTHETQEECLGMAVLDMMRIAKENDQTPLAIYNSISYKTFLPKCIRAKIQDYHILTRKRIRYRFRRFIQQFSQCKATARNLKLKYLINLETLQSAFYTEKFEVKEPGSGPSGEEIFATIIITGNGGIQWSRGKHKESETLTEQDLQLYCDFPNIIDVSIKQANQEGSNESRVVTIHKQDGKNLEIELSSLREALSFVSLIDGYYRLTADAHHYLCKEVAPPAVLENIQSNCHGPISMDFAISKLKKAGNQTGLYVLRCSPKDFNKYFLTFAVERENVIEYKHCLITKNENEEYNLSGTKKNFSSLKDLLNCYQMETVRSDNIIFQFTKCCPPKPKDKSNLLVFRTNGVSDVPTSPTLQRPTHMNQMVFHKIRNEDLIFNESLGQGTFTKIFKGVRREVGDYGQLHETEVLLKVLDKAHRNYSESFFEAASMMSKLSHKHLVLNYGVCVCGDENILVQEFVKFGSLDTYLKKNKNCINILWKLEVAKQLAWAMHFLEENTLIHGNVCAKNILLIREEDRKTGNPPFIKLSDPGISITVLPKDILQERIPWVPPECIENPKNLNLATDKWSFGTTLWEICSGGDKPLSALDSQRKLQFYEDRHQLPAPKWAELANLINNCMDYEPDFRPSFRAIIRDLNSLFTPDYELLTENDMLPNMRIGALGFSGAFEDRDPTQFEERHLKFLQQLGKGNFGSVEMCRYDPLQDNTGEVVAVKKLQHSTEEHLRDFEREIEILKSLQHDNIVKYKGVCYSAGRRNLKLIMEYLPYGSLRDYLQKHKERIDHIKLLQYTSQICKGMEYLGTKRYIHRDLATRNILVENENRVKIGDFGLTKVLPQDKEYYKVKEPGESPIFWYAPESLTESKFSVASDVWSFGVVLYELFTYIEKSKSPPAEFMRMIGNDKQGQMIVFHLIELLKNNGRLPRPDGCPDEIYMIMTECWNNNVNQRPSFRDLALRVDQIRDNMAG
MAPKAPK2, sequence (P49137 whole entry): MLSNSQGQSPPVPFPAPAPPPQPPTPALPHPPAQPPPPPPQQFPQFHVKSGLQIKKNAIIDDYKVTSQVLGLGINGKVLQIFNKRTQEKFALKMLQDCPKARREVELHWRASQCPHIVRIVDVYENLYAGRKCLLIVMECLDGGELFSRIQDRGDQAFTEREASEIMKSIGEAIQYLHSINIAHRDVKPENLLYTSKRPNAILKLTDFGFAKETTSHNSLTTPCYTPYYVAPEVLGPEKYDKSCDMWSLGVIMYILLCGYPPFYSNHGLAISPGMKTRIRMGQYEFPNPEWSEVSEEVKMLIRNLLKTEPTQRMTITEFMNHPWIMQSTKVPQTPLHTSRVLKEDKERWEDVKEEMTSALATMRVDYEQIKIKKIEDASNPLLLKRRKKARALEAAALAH
MINK, sequence (Q8N4C8 whole entry): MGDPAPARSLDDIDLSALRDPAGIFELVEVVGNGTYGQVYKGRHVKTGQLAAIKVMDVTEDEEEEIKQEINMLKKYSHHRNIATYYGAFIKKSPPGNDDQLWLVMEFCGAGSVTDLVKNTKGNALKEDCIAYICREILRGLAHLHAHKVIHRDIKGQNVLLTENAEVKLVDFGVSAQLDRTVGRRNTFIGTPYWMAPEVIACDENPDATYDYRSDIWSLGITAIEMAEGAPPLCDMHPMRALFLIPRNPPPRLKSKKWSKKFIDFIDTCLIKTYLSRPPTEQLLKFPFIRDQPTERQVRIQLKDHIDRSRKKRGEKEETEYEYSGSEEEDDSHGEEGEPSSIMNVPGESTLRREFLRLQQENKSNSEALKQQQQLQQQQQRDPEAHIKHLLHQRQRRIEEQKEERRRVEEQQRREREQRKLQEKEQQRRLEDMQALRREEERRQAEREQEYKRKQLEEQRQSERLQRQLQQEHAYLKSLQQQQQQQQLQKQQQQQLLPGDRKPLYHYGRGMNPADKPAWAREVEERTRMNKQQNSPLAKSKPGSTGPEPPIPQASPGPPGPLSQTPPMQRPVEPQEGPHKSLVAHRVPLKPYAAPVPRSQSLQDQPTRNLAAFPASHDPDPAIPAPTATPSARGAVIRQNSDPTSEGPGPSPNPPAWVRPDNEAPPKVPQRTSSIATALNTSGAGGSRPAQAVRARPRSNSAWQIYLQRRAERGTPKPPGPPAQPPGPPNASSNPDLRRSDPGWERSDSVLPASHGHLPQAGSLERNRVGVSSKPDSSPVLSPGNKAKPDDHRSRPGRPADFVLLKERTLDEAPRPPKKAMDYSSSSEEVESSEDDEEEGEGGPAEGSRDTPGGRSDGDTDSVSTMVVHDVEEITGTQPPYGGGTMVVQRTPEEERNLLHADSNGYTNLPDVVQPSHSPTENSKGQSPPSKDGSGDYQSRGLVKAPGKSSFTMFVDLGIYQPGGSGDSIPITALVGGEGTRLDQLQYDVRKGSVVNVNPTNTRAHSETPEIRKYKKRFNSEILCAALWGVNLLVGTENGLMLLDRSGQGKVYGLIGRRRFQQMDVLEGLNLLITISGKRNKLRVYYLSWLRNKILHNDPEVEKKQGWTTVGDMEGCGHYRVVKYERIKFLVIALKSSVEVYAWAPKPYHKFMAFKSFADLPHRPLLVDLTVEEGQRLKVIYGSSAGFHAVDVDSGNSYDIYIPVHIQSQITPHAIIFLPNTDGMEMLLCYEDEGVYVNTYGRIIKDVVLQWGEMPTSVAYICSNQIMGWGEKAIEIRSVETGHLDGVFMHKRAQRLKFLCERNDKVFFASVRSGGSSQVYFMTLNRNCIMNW
GSK3 beta, sequence (P49841 whole entry): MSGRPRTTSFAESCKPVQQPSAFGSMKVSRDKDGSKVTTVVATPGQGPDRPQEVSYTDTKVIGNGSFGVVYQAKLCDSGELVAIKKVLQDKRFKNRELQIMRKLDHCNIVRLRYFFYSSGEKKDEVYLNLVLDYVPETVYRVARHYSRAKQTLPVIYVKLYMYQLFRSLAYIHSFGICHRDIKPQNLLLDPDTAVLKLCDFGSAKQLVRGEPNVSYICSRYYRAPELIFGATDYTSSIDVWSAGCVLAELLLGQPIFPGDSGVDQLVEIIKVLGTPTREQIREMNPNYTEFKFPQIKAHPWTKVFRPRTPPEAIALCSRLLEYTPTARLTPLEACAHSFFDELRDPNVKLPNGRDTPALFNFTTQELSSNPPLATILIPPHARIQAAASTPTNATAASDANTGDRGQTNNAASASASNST
TAOK2, sequence (Q9UL54 whole entry): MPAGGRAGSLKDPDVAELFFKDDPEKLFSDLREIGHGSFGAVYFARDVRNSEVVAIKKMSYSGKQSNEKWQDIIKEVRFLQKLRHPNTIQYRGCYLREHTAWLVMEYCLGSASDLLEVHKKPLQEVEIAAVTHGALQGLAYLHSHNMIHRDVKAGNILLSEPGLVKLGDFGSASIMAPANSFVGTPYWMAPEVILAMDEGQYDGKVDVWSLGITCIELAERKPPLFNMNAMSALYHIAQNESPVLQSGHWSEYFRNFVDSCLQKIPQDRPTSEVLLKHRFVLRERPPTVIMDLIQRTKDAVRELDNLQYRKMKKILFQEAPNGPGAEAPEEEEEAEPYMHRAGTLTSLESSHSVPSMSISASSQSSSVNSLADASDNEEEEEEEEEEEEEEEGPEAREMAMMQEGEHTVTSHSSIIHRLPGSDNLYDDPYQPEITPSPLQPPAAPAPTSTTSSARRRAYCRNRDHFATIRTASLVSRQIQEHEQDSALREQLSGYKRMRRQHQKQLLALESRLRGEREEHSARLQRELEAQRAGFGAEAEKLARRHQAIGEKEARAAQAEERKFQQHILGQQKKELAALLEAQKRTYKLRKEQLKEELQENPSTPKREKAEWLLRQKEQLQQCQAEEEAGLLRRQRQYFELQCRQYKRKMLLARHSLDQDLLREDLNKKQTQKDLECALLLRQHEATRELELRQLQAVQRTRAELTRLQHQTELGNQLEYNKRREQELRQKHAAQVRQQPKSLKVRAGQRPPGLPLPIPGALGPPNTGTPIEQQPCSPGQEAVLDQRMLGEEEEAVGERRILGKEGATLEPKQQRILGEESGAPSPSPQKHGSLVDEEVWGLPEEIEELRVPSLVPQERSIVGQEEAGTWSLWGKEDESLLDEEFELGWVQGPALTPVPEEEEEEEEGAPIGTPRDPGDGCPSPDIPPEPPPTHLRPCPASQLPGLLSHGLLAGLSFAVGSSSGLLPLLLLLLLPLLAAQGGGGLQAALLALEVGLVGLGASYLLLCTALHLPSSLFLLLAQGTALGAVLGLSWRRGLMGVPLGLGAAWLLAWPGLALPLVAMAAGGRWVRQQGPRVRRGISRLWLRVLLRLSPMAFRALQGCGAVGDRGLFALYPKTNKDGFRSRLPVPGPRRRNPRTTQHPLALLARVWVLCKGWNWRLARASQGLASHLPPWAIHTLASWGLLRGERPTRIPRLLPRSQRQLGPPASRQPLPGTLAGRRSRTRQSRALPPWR

## COc1cc(N2CCC(N3CCN(C)CC3)CC2)ccc1Nc1ncc(Cl)c(Nc2ccccc2P(C)(C)=O)n1 [Brigatinib, reference compound]
JAK2
  IC50: 680 ± 47 nM
MAPKAPK2
  IC50: > 10000 nM
MINK
  IC50: 4040 ± 2160 nM
MST4
  IC50: 1080 ± 502 nM
TAOK2
  IC50: 964 ± 48 nM
CK1 alpha
  IC50: > 10000 nM
[1]; [4]
  Tumor volume Mean: 153 mm³
  Tumor volume: 189 and 117 and 124
[1]; 5 mg/kg PO QD×4 W, day 3 after administration
  Tumor volume: 172 and 123 and 114
[1]; [5]
  Tumor volume Mean: 146 mm³
  Tumor volume: 149 and 98
[1]; [6]
  Tumor volume Mean: 122 mm³
  Tumor volume: 128 and 67
[1]; [7]
  Tumor volume Mean: 123 mm³
  Tumor volume: 154 and 64
[1]; [8]
  Tumor volume Mean: 146 mm³
  Tumor volume: 177 and 96
[1]; [9]
  Tumor volume Mean: 162 mm³
  Tumor volume: 138 and 255
[1]; [10]
  Tumor volume Mean: 148 mm³
  Tumor volume: 122 and 117
[1]; [11]
  Tumor volume Mean: 157 mm³
  Tumor volume: 113 and 101 and 56
[1]; [12]
  Tumor volume Mean: 149 mm³
  Tumor volume: 229 and 201 and 134 and 173 and 152 and 164 and 80 and 99 and 111
[1]; [13]
  Tumor volume Mean: 141 mm³
  Tumor volume: 206 and 208 and 136 and 143 and 125 and 137 and 82 and 123 and 106
[1]; [14]
  Tumor volume Mean: 123 mm³
  Tumor volume: 195 and 180 and 121 and 110 and 74 and 78 and 152 and 89
[1]; [15]
  Tumor volume Mean: 114 mm³
  Tumor volume: 236 and 171 and 101 and 97 and 63 and 85 and 89 and 106 and 80
[1]; [16]
  Tumor volume Mean: 108 mm³
  Tumor volume: 204 and 172 and 98 and 118 and 60 and 84 and 74 and 89 and 71
[1]; [17]
  Tumor volume Mean: 133 mm³
  Tumor volume: 239 and 176 and 118 and 196 and 66 and 106 and 97 and 89
[1]; [18]
  Tumor volume Mean: 133 mm³
  Tumor volume: 247 and 182 and 156 and 187 and 61 and 96 and 111 and 68 and 85
[1]; [19]
  Tumor volume Mean: 136 mm³
  Tumor volume: 262 and 186 and 98 and 210 and 62 and 101 and 137 and 102 and 70
[1]; [20]
  Tumor volume Mean: 152 mm³
  Tumor volume: 332 and 197 and 131 and 249 and 47 and 95 and 163 and 85 and 70
[1]; LU-01-0015 and NCI-H3122 xenograft models, all P < 0.05
  tumor growth inhibition: able to inhibit tumor growth
[1]; nude mouse xenograft models (LU-01-0015, NCI-H3122), all P ≥ 0.05
  effect on body weight: no effect
[2]
  IC50: 6.49 nM
[3]
  IC50: 479 ± 110 nM
CDK2
  IC50: 1510 ± 554 nM
EPHA2
  IC50: > 10000 nM
DYRK3
  IC50: > 10000 nM
SRC
  IC50: 950 ± 309 nM
P38 alpha
  IC50: > 10000 nM
GSK3 beta
  IC50: > 10000 nM
